PubChem BioAssay AID1259407 (Chemical Carcinogenesis Research Information System (CCRIS), 2018)
Calls of active or inactive are those of the source. How the calls were made is not given here.

System: CCRIS mutagenicity, Ames/micronucleus/aberration tests
Assay: CCRIS mutagenicity studies
[1] = Test System: AMES SALMONELLA TYPHIMURIUM, Strain/Indicator: TA98, Metabolic Activation: NONE, Method: STANDARD PLATE
[2] = Test System: AMES SALMONELLA TYPHIMURIUM, Strain/Indicator: TA100, Metabolic Activation: NONE, Method: STANDARD PLATE
[3] = Test System: AMES SALMONELLA TYPHIMURIUM, Strain/Indicator: TA100, Metabolic Activation: S-9, Method: STANDARD PLATE
[4] = Test System: AMES SALMONELLA TYPHIMURIUM, Strain/Indicator: TA102, Metabolic Activation: NONE, Method: STANDARD PLATE
[5] = Test System: AMES SALMONELLA TYPHIMURIUM, Strain/Indicator: TA98, Metabolic Activation: RAT, LIVER, S-9, AROCLOR 1254, Method: STANDARD PLATE
[6] = Test System: AMES SALMONELLA TYPHIMURIUM, Strain/Indicator: TA98, Metabolic Activation: NONE, Method: PREINCUBATION
[7] = Test System: AMES SALMONELLA TYPHIMURIUM, Strain/Indicator: TA100, Metabolic Activation: NONE, Method: PREINCUBATION

Nc1nc2n[nH]nc2c(=O)[nH]1
mutagenic call [1]: inactive; negative | mutagenic call (Test System: AMES SALMONELLA TYPHIMURIUM, Strain/Indicator: TA98, Metabolic Activation: S-9, Method: STANDARD PLATE): inactive; negative | mutagenic call [2]: inactive; negative | mutagenic call [3]: inactive; negative | mutagenic call [4]: inactive; negative | mutagenic call (Test System: AMES SALMONELLA TYPHIMURIUM, Strain/Indicator: TA1537, Metabolic Activation: NONE, Method: STANDARD PLATE): inactive; negative | mutagenic call (Test System: AMES SALMONELLA TYPHIMURIUM, Strain/Indicator: TA1537, Metabolic Activation: S-9, Method: STANDARD PLATE): inactive; negative | mutagenic call (Test System: E. COLI, Strain/Indicator: WP2 (HCR), Metabolic Activation: NONE, Method: STANDARD PLATE): inactive; negative | mutagenic call (Test System: E. COLI, Strain/Indicator: WP2 (HCR), Metabolic Activation: S-9, Method: STANDARD PLATE): inactive; negative

CC(C)C(=O)Nc1snc2cc(Cl)ccc12
mutagenic call [2]: inactive; negative | mutagenic call [3]: inactive; negative

C=Cc1ccc([N+](=O)[O-])cc1
mutagenic call [1]: active; positive | mutagenic call [5]: active; positive | mutagenic call [2]: active; positive | mutagenic call (Test System: AMES SALMONELLA TYPHIMURIUM, Strain/Indicator: TA100, Metabolic Activation: RAT, LIVER, S-9, AROCLOR 1254, Method: STANDARD PLATE): active; positive

COc1c2ccoc2nc2c(O)cccc12
mutagenic call [1]: inactive; negative | mutagenic call (Test System: AMES SALMONELLA TYPHIMURIUM, Strain/Indicator: TA98, Metabolic Activation: RAT LIVER S-9, PHENOBARTITAL, Method: STANDARD PLATE): active; positive

O=[N+]([O-])c1ccc2ncccc2c1
mutagenic call [6]: active; positive | mutagenic call (Test System: AMES SALMONELLA TYPHIMURIUM, Strain/Indicator: TA98, Metabolic Activation: RAT, LIVER, S-9, Method: PREINCUBATION): active; positive | mutagenic call [7]: active; positive | mutagenic call (Test System: AMES SALMONELLA TYPHIMURIUM, Strain/Indicator: TA100, Metabolic Activation: RAT, LIVER, S-9, Method: PREINCUBATION): active; positive

CCOC(=O)CNC(=O)C(C)(C)Br
mutagenic call (Test System: AMES SALMONELLA TYPHIMURIUM, Strain/Indicator: TA100, Metabolic Activation: MOUSE, LIVER, S-9, AROCLOR 1254, Method: STANDARD PLATE): inactive; negative | mutagenic call [2]: inactive; negative

CCn1cc(C(=O)O)c(=O)c2cc(F)c(N3CCNCC3)cc21
mutagenic call (End Point: In vitro micronucleus, Test System: WTK-1 human lymphoma cells, Metabolic Activation: None): active; positive | mutagenic call [6]: inactive; negative | mutagenic call (Test System: AMES SALMONELLA TYPHIMURIUM, Strain/Indicator: TA98, Metabolic Activation: RAT LIVER S-9, AROCLOR 1254, Method: PREINCUBATION): inactive; negative | mutagenic call [7]: inactive; negative | mutagenic call (Test System: AMES SALMONELLA TYPHIMURIUM, Strain/Indicator: TA100, Metabolic Activation: RAT LIVER S-9, AROCLOR 1254, Method: PREINCUBATION): inactive; negative | mutagenic call (Test System: AMES SALMONELLA TYPHIMURIUM, Strain/Indicator: TA102, Metabolic Activation: NONE, Method: PREINCUBATION): active; positive | mutagenic call [4]: active; positive | mutagenic call (Test System: AMES SALMONELLA TYPHIMURIUM, Strain/Indicator: TA102, Metabolic Activation: RAT LIVER S-9, AROCLOR 1254, Method: PREINCUBATION): active; positive | mutagenic call (Test System: AMES SALMONELLA TYPHIMURIUM, Strain/Indicator: TA102, Metabolic Activation: RAT LIVER S-9, AROCLOR 1254, Method: STANDARD PLATE): active; positive | mutagenic call (Test System: AMES SALMONELLA TYPHIMURIUM, Strain/Indicator: TA104, Metabolic Activation: NONE, Method: PREINCUBATION): active; positive | mutagenic call (Test System: AMES SALMONELLA TYPHIMURIUM, Strain/Indicator: TA104, Metabolic Activation: RAT LIVER S-9, AROCLOR 1254, Method: PREINCUBATION): active; positive | mutagenic call (Test System: AMES SALMONELLA TYPHIMURIUM, Strain/Indicator: UHT8414, Metabolic Activation: NONE, Method: PREINCUBATION): inactive; negative | mutagenic call (Test System: AMES SALMONELLA TYPHIMURIUM, Strain/Indicator: UHT8414, Metabolic Activation: RAT LIVER S-9, AROCLOR 1254, Method: PREINCUBATION): inactive; negative | mutagenic call (Test System: Ames Salmonella typhimurium, Strain/Indicator: TA102, Metabolic Activation: Rat, Liver, S9, Aroclor 1254, Method: Preincubation): active; positive. vitamin e (alpha-tocoferol) induced a statistically significant reduct | mutagenic call (Test System: CHINESE HAMSTER V-79, Strain/Indicator: V-79 (HPRT)/6-THIOGUANINE, Metabolic Activation: NONE): inactive; negative | mutagenic call (Test System: MOUSE LYMPHOMA, Strain/Indicator: L5178Y (HPRT)/6-THIOGUANINE, Metabolic Activation: NONE, Method: FLUCTUATION TEST): inactive; negative | mutagenic call (Test System: MOUSE LYMPHOMA, Strain/Indicator: L5178Y (TK+/TK-), Metabolic Activation: NONE, Method: FLUCTUATION TEST): inactive; negative

O=C1CCCc2cc3c(cc21)cc([N+](=O)[O-])c1ccccc13
mutagenic call (Test System: AMES SALMONELLA TYPHIMURIUM, Strain/Indicator: TA98-1,8-DNP6, Metabolic Activation: NONE): active; positive | mutagenic call (Test System: AMES SALMONELLA TYPHIMURIUM, Strain/Indicator: TA98-1,8-DNP6, Metabolic Activation: S-9): inactive; negative | mutagenic call (Test System: AMES SALMONELLA TYPHIMURIUM, Strain/Indicator: TA98, Metabolic Activation: NONE): active; positive | mutagenic call (Test System: AMES SALMONELLA TYPHIMURIUM, Strain/Indicator: TA98, Metabolic Activation: S-9): active; positive | mutagenic call (Test System: AMES SALMONELLA TYPHIMURIUM, Strain/Indicator: TA98NR, Metabolic Activation: NONE): active; positive | mutagenic call (Test System: AMES SALMONELLA TYPHIMURIUM, Strain/Indicator: TA98NR, Metabolic Activation: S-9): active; positive | mutagenic call (Test System: AMES SALMONELLA TYPHIMURIUM, Strain/Indicator: TA100, Metabolic Activation: NONE): active; positive | mutagenic call (Test System: AMES SALMONELLA TYPHIMURIUM, Strain/Indicator: TA100, Metabolic Activation: S-9): active; positive | mutagenic call (Test System: AMES SALMONELLA TYPHIMURIUM, Strain/Indicator: TA100NR, Metabolic Activation: NONE): active; positive | mutagenic call (Test System: AMES SALMONELLA TYPHIMURIUM, Strain/Indicator: TA100NR, Metabolic Activation: S-9): active; positive

CC(=O)Nc1cc2c(cc1OC(C)=O)-c1ccccc1C2
mutagenic call [5]: inactive; negative
